Reference: PMC9917735, “Optimization of the Hemolysis Assay for the Assessment of Cytotoxicity” (International Journal of Molecular Sciences, 2023)
Values after ≈ are worked out from the molar mass of the structure shown. Read-outs that look alike come from different tables or passages of the source.

How the values were obtained:
[1] = tested on: washed human erythrocytes; experiment: Flow cytometry of treated erythrocytes with live/dead amine-reactive stain; type: cell-based; details: washed human erythrocytes treated 60 minutes, AMPs 100 μM, amine-reactive dye 488, flow cytometry 533/30 nm
Procedure: Briefly, a 1% washed erythrocyte solution was diluted to ~10^5 cells/mL and 0.4% Trypan blue (1:1 ratio) was added before 10 μL of the stained cell suspension was added to the Countess cell counting chamber slide. After a 30 s incubation, the slide was inserted into the instrument for automatic cell counting.
The Countess II automated cell counter (see above) was used to adjust the negative control sample to ~10^5 cells/mL and to subsequently dilute all samples by the same factor. Then, 0.5 μL of live/dead amine-reactive dye 488 (Fisher Scientific, Waltham, MA, USA) was added to 0.5 mL cell suspension and incubated for 30 min protected from light. Subsequently, the samples were washed twice with PBS pH 7 containing 1% bovine serum albumin (BSA), and finally resuspended in PBS pH 7 with 1% BSA. Cells were next counted, and the fluorescence measured using the 533/30 nm filter in an Accuri C6 flow cytometer (BD Biosciences, Franklin Lakes, NJ, USA).

[2] = tested on: human whole blood; details: for Calculated hemolysis ratio: human whole blood, peptides 100 μM, 60 min 37 °C, neg. PBS, 3 x 2 replicates
[3] = tested on: washed human erythrocytes; experiment: Hemolysis assay, washed human erythrocytes
[4] = tested on: rabbit erythrocytes; details: AMPs 100 μM, 1 hour 37 °C, pos. 10% Triton X-100, neg. PBS, 3 x 2 replicates
Excerpt: (§1) Cytotoxicity studies are important during characterization of novel compounds or materials intended for interactions within human biological systems in vivo. Evaluation of the extent to which the compound induces disruption of the membrane of erythrocytes (red blood cells), thereby causing release of cellular content, often constitutes an initial step in such cytotoxicity assessments. The assay used in this context is generally referred to as the hemolysis assay, which has the advantages of being cheap, accessible, and simple to perform. Blood is drawn from a human or an animal, and next, the washed erythrocytes are incubated together with the compound or material under investigation. If the compound causes hemolysis, hemoglobin (along with other cellular constituents) will be released into the supernatant.
(§2) Blood from mice, rats, and rabbits was provided by the Department of Comparative Medicine at Oslo University Hospital (Marianne Aannestad). For mice and rats, the blood was collected from the heart by using 25 G and 21 G needles, respectively, whereas for rabbits, the blood was collected by free bleed through the ear using a yellow neoflon (24 G). All animals were wild type and anesthetized prior to the procedure.
(§3) All blood was collected in Lithium Heparin tubes 4 mL (Greiner Bio-One, Kremsmünster, Austria) or Coagulation sodium citrate 3.2% tubes 3 mL (Greiner Bio-One).
(§4) AMP 2 contained an N-terminal hexanoic acid moiety, whereas all peptides contained amidated C-termini. These three peptides were synthesized by Genscript Inc. (Piscataway, NJ, USA), and stock solutions of 1 mg/mL were made from the purchased powders. […] All peptides were diluted to yield a 100 μM final concentration in the hemolysis assays.
(§5) Triton X-100 (T8787) and Tween-20 (P2287) detergents were purchased from Sigma Aldrich and diluted to obtain 10% stock solutions by weighing (w/v). A sodium Dodecyl Sulfate (SDS) 10% solution was purchased from Invitrogen (Waltham, MA, USA, 15553027). All subsequent dilutions annotated in figures were made from these stocks.
(§6) As soon as possible after phlebotomy, the blood samples were centrifuged at 1700× g for 5 min. The supernatant was removed by aspiration and 2 mL of PBS pH 7 was added. The washing step was repeated three times or until the supernatant was clear. After final aspiration, the remaining pellet was diluted 1:100 in PBS pH 7 to obtain a 1% erythrocyte suspension (or 1:100, 1:50, and 1:20 for assays testing the effect of erythrocyte concentration). For experiments using whole blood, the washing steps were not performed, but downstream experimentation was identical. For experiments performed with 96-well plates, 50 μL of test compound, water, or detergent were mixed with 50 μL of blood sample (1% erythrocyte suspension or whole blood). For experiments using larger volumes, 250 μL of test compound, water, or detergent were mixed with 250 μL blood sample in an Eppendorf tube. Samples were subsequently incubated at 37 °C for 60 min (or 15, 30, 60, 90, or 120 min for assays evaluating the effect of incubation time). After incubation, the plates/tubes were centrifuged at 1700× g for 5 min, and then 50 μL of the supernatants were transferred to transparent, flat-bottom 96-well plates (Anicrin, A013418). Finally, absorption was measured at 405, 530, and 570 nm in a Victor Nivo Multimode microplate reader (Perkin Elmer, Waltham, MA, USA).

[5] = tested on: rabbit whole blood; details: for Hemolysis ratio: rabbit whole blood, AMPs 100 μM, 1 hour 37 °C, 3 x 2 replicates
Excerpt: as §1, §2, §3, §4, §5, §6

[6] = tested on: mouse erythrocytes; details: AMPs 100 μM, 1 hour 37 °C, pos. 10% Triton X-100, neg. PBS, 3 x 2 replicates
Excerpt: as §1, §2, §3, §4, §5, §6

[7] = tested on: rat erythrocytes; details: AMPs 100 μM, 1 hour 37 °C, pos. 10% Triton X-100, neg. PBS, 3 x 2 replicates
Excerpt: as §1, §2, §3, §4, §5, §6

[8] = tested on: E. coli; details: E. coli

CC[C@H](C)[C@H](NC(=O)[C@H](CC(C)C)NC(=O)[C@H](CCC(N)=O)NC(=O)[C@H](CC(C)C)NC(=O)[C@@H](NC(=O)[C@H](C)NC(=O)[C@H](CCCCN)NC(=O)[C@H](CCCCN)NC(=O)[C@H](CCCCN)NC(=O)[C@H](CCCCN)NC(=O)[C@H](CCCCN)NC(=O)[C@@H](NC(=O)[C@H](CCCNC(=N)N)NC(=O)[C@H](CCCCN)NC(=O)[C@@H](NC(=O)[C@H](CC(C)C)NC(=O)[C@H](Cc1ccc(O)cc1)NC(=O)[C@H](CCCNC(=N)N)NC(=O)CNC(=O)[C@H](CC(=O)O)NC(=O)[C@@H](NC(=O)[C@@H](N)CCSC)[C@@H](C)O)[C@@H](C)CC)C(C)C)C(C)C)C(=O)N[C@@H](CC(C)C)C(=O)N[C@@H](CCCCN)C(=O)N[C@@H](Cc1ccccc1)C(=O)N[C@@H](CC(C)C)C(N)=O [AMP 3]
Fluorescence intensity per cell of remaining intact cells (live/dead stain) [1]: surprisingly high fluorescence intensity measurements per cell | Calculated hemolysis ratio ([2]; OD 405 nm (signal saturated), pos. 10% SDS): 15.5 ± 7.1% | Calculated hemolysis ratio ([2]; OD 530 nm, pos. 10% SDS): 2.7% | Calculated hemolysis ratio ([2]; OD 570 nm, pos. 10% Triton X-100 (table title; text says 10% SDS)): 3.8% | Fold reduction in HR in human whole blood in comparison with washed erythrocytes measured at 405 nm ([2]; whole blood HR with 10% SDS as positive control (Table 5) vs washed erythrocytes (Table 6), 100 μM): > 27 fold | Calculated hemolysis ratio ([3]; 1% washed human erythrocytes, OD 530 nm, peptides 100 μM, 60 min 37 °C, pos. 10% Triton X-100, neg. PBS, 3 x 2 replicates): 68.4 ± 15% | Calculated hemolysis ratio ([3]; 1% washed human erythrocytes, OD 570 nm, peptides 100 μM, 60 min 37 °C, pos. 10% Triton X-100, neg. PBS, 3 x 2 replicates): 65.7 ± 11.6% | Calculated Hemolysis (%) ([3]; 2% pooled human erythrocytes, AMPs 100 µM, 60 min 37 °C, 405 nm, pos. 10% Triton X-100, neg. PBS, 3 x 2 replicates): 41.1 ± 3.2% | Calculated Hemolysis (%) ([3]; 5% pooled human erythrocytes, AMPs 100 µM, 60 min 37 °C, 405 nm, pos. 10% Triton X-100, neg. PBS, 3 x 2 replicates): 45.7 ± 8.2% | Calculated hemolysis ratio ([3]; Table 1: 1% human erythrocytes, 100 µM, 60 min 37 °C, OD 405 nm, pos. 10% Triton X-100, neg. PBS, mean ± SD, 3 experimental x 2 technical replicates): 37 ± 5.1% | Calculated hemolysis ratio ([3]; Table 2: pooled blood from all 10 individuals, 1% erythrocytes, AMPs 100 µM, 60 min 37 °C, 405 nm, pos. 10% Triton X, neg. PBS, 3 x 2 replicates): 45.4 ± 4.8% | Calculated Hemolysis (%) ([3]; Table 3: 1% pooled human erythrocytes, AMPs 100 µM, 60 min 37 °C, 405 nm, pos. 10% Triton X-100, neg. PBS, 3 x 2 replicates): 45.4 ± 4.8% | Calculated hemolysis ratio ([3]; Table 4: incubation 60 min, 37 °C, 1% human erythrocytes, AMPs 100 µM, 405 nm, pos. 10% Triton X-100, neg. PBS, 3 biological x 2 technical replicates): 64.6 ± 6.8% | Calculated hemolysis ratio ([3]; Table 6: 1% washed human erythrocytes, OD 405 nm, peptides 100 μM, 60 min 37 °C, pos. 10% Triton X-100, neg. PBS, 3 x 2 replicates): 73.5 ± 14.4% | Calculated hemolysis ratio ([3]; human individual # 1, 1% erythrocytes, AMPs 100 µM, 60 min 37 °C, 405 nm, pos. 10% Triton X, neg. PBS, 3 x 2 replicates): 36.4 ± 5% | Calculated hemolysis ratio ([3]; human individual # 2, 1% erythrocytes, AMPs 100 µM, 60 min 37 °C, 405 nm, pos. 10% Triton X, neg. PBS, 3 x 2 replicates): 39.3 ± 6% | Calculated hemolysis ratio ([3]; human individual # 3, 1% erythrocytes, AMPs 100 µM, 60 min 37 °C, 405 nm, pos. 10% Triton X, neg. PBS, 3 x 2 replicates): 49.4 ± 8.5% | Calculated hemolysis ratio ([3]; human individual # 4, 1% erythrocytes, AMPs 100 µM, 60 min 37 °C, 405 nm, pos. 10% Triton X, neg. PBS, 3 x 2 replicates): 43.6 ± 4.2% | Calculated hemolysis ratio ([3]; human individual # 5, 1% erythrocytes, AMPs 100 µM, 60 min 37 °C, 405 nm, pos. 10% Triton X, neg. PBS, 3 x 2 replicates): 38.3 ± 7.3% | Calculated hemolysis ratio ([3]; human individual # 6, 1% erythrocytes, AMPs 100 µM, 60 min 37 °C, 405 nm, pos. 10% Triton X, neg. PBS, 3 x 2 replicates): 45.7 ± 6.4% | Calculated hemolysis ratio ([3]; human individual # 7, 1% erythrocytes, AMPs 100 µM, 60 min 37 °C, 405 nm, pos. 10% Triton X, neg. PBS, 3 x 2 replicates): 37.7 ± 6.9% | Calculated hemolysis ratio ([3]; human individual # 8, 1% erythrocytes, AMPs 100 µM, 60 min 37 °C, 405 nm, pos. 10% Triton X, neg. PBS, 3 x 2 replicates): 45.6 ± 9.2% | Calculated hemolysis ratio ([3]; human individual # 9, 1% erythrocytes, AMPs 100 µM, 60 min 37 °C, 405 nm, pos. 10% Triton X, neg. PBS, 3 x 2 replicates): 42.1 ± 4.7% | Calculated hemolysis ratio ([3]; human individual # 10, 1% erythrocytes, AMPs 100 µM, 60 min 37 °C, 405 nm, pos. 10% Triton X, neg. PBS, 3 x 2 replicates): 50.3 ± 4.6% | Calculated hemolysis ratio ([3]; incubated in polypropylene tubes, 1% washed human erythrocytes, peptides 100 μM, 60 min 37 °C, 405 nm, pos. 10% Triton X-100, neg. PBS, 3 x 2 replicates): 57.5 ± 13.2% | Calculated hemolysis ratio ([3]; incubated in polystyrene tubes, 1% washed human erythrocytes, peptides 100 μM, 60 min 37 °C, 405 nm, pos. 10% Triton X-100, neg. PBS, 3 x 2 replicates): 66.7 ± 12.7% | Calculated hemolysis ratio ([3]; incubation 15 min, 37 °C, 1% human erythrocytes, AMPs 100 µM, 405 nm, pos. 10% Triton X-100, neg. PBS, 3 biological x 2 technical replicates): 54.8 ± 8.2% | Calculated hemolysis ratio ([3]; incubation 30 min, 37 °C, 1% human erythrocytes, AMPs 100 µM, 405 nm, pos. 10% Triton X-100, neg. PBS, 3 biological x 2 technical replicates): 56.6 ± 7.4% | Calculated hemolysis ratio ([3]; incubation 90 min, 37 °C, 1% human erythrocytes, AMPs 100 µM, 405 nm, pos. 10% Triton X-100, neg. PBS, 3 biological x 2 technical replicates): 63 ± 4.5% | Calculated hemolysis ratio ([3]; incubation 120 min, 37 °C, 1% human erythrocytes, AMPs 100 µM, 405 nm, pos. 10% Triton X-100, neg. PBS, 3 biological x 2 technical replicates): 74.3 ± 21.1% | Observed hemolytic properties (qualitative) ([3]; reason for choice of the AMPs): high | Calculated hemolysis ratio ([3]; total incubation volume 100 μL, 1% washed human erythrocytes, peptides 100 μM, 60 min 37 °C, 405 nm, pos. 10% Triton X-100, neg. PBS, 3 x 2 replicates): 66.7 ± 12.7% | Calculated hemolysis ratio ([3]; total incubation volume 500 μL, 1% washed human erythrocytes, peptides 100 μM, 60 min 37 °C, 405 nm, pos. 10% Triton X-100, neg. PBS, 3 x 2 replicates): 72.7 ± 10.4% | Hemolysis ratio ([4]; Table S4: washed rabbit erythrocytes, OD 405 nm): 53.2 +/- 7.4% | Hemolysis ratio ([4]; washed rabbit erythrocytes, OD 530 nm): 50.1 +/- 7.7% | Hemolysis ratio ([4]; washed rabbit erythrocytes, OD 570 nm): 52.7 +/- 8.2% | Fold decrease of hemolytic effect in rabbit whole blood vs washed rabbit erythrocytes ([5]; cf. Tables S3 and S4, 100 μM): 4 fold | Hemolysis ratio ([5]; OD 530 nm, pos. 10% SDS, neg. PBS): 13.2 +/- 3% | Hemolysis ratio ([5]; OD 570 nm, pos. 10% Triton X-100, neg. PBS): 13.1 +/- 3.2% | Hemolysis ratio ([6]; Table S4: washed mouse erythrocytes, OD 405 nm): 77.1 +/- 3.8% | Hemolysis ratio ([6]; washed mouse erythrocytes, OD 530 nm): 71.1 +/- 3.2% | Hemolysis ratio ([6]; washed mouse erythrocytes, OD 570 nm): 47.7 +/- 2.5% | Hemolysis ratio ([7]; Table S4: washed rat erythrocytes, OD 405 nm): 29.5 +/- 8.2% | Hemolysis ratio ([7]; washed rat erythrocytes, OD 530 nm): 30.7 +/- 13.1% | Hemolysis ratio ([7]; washed rat erythrocytes, OD 570 nm): 31.1 +/- 12.7% | Minimum inhibitory concentration (E. coli) [8]: 4 µM (≈ 12.5 µg/mL)
